Measurements: the NIST ThermoML archive (doi:10.1016/j.jct.2019.02.011)

Test: xn = mol fraction of the nth substance listed
Conditions: Liquid, Vibrating tube method

COC(=O)OC [dimethyl carbonate] + CO
mass density [kg/m3]
Conditions | 100 kPa | 5000 kPa | 10000 kPa | 15000 kPa | 20000 kPa | 25000 kPa | 30000 kPa | 35000 kPa | 40000 kPa
288.15 K, x1 = 0.0253 | 810.84 | 815.18 | 819.54 | 823.48 | 827.53 | 831.19 | 834.68 | 838.22 | 841.6
288.15 K, x1 = 0.0503 | 824.62 | 828.97 | 833.29 | 837.23 | 841.29 | 844.9 | 848.4 | 851.95 | 855.33
288.15 K, x1 = 0.0745 | 837.24 | 841.59 | 845.92 | 849.88 | 853.93 | 857.55 | 861.06 | 864.56 | 867.95
288.15 K, x1 = 0.101 | 850.42 | 854.82 | 859.16 | 863.12 | 867.17 | 870.8 | 874.32 | 877.83 | 881.23
288.15 K, x1 = 0.1502 | 872.98 | 877.39 | 881.74 | 885.77 | 889.81 | 893.46 | 897.03 | 900.56 | 903.97
288.15 K, x1 = 0.2059 | 896.31 | 900.74 | 905.09 | 909.15 | 913.18 | 916.85 | 920.43 | 923.97 | 927.4
288.15 K, x1 = 0.25 | 913.24 | 917.63 | 921.99 | 926.05 | 930.08 | 933.76 | 937.36 | 940.91 | 944.34
288.15 K, x1 = 0.3004 | 930.93 | 935.33 | 939.69 | 943.77 | 947.8 | 951.49 | 955.1 | 958.61 | 962.05
288.15 K, x1 = 0.3426 | 944.7 | 949.1 | 953.42 | 957.51 | 961.53 | 965.18 | 968.8 | 972.32 | 975.72
288.15 K, x1 = 0.3984 | 961.49 | 965.91 | 970.23 | 974.34 | 978.3 | 981.96 | 985.59 | 989.12 | 992.53
288.15 K, x1 = 0.4514 | 976.13 | 980.55 | 984.83 | 988.95 | 992.91 | 996.58 | 1000.22 | 1003.71 | 1007.07
288.15 K, x1 = 0.5054 | 989.85 | 994.22 | 998.51 | 1002.64 | 1006.6 | 1010.28 | 1013.92 | 1017.42 | 1020.79
288.15 K, x1 = 0.5509 | 1000.55 | 1004.93 | 1009.17 | 1013.31 | 1017.27 | 1020.95 | 1024.6 | 1028.11 | 1031.49
288.15 K, x1 = 0.6002 | 1011.31 | 1015.7 | 1019.95 | 1024.09 | 1028.04 | 1031.69 | 1035.34 | 1038.85 | 1042.19
288.15 K, x1 = 0.6469 | 1020.74 | 1025.14 | 1029.39 | 1033.54 | 1037.49 | 1041.14 | 1044.75 | 1048.27 | 1051.61
288.15 K, x1 = 0.6993 | 1030.63 | 1035.03 | 1039.28 | 1043.44 | 1047.34 | 1051 | 1054.61 | 1058.08 | 1061.43
288.15 K, x1 = 0.7496 | 1039.53 | 1043.88 | 1048.14 | 1052.31 | 1056.2 | 1059.86 | 1063.48 | 1066.96 | 1070.31
288.15 K, x1 = 0.799 | 1047.69 | 1052.04 | 1056.25 | 1060.43 | 1064.32 | 1067.94 | 1071.56 | 1075.04 | 1078.4
288.15 K, x1 = 0.837 | 1053.71 | 1058.02 | 1062.23 | 1066.41 | 1070.3 | 1073.92 | 1077.55 | 1080.99 | 1084.34
288.15 K, x1 = 0.9093 | 1064.47 | 1068.78 | 1072.95 | 1077.14 | 1080.97 | 1084.6 | 1088.24 | 1091.68 | 1094.99
288.15 K, x1 = 0.9239 | 1066.51 | 1070.83 | 1074.99 | 1079.18 | 1083.02 | 1086.65 | 1090.28 | 1093.73 | 1097.04
288.15 K, x1 = 0.9575 | 1071.14 | 1075.46 | 1079.63 | 1083.83 | 1087.66 | 1091.29 | 1094.93 | 1098.38 | 1101.69
288.15 K, x1 = 0.9861 | 1074.98 | 1079.3 | 1083.47 | 1087.67 | 1091.5 | 1095.14 | 1098.78 | 1102.23 | 1105.55
288.15 K, x1 = 1 | 1076.83 | 1081.15 | 1085.32 | 1089.52 | 1093.35 | 1096.99 | 1100.63 | 1104.08 | 1107.4
293.15 K, x1 = 0.0253 | 805.71 | 810.46 | 814.95 | – | – | – | – | – | –
293.15 K, x1 = 0.0503 | 819.38 | 824.13 | 828.58 | – | – | – | – | – | –
293.15 K, x1 = 0.0745 | 831.94 | 836.69 | 841.14 | – | – | – | – | – | –
293.15 K, x1 = 0.101 | 844.99 | 849.75 | 854.2 | – | – | – | – | – | –
293.15 K, x1 = 0.1502 | 867.43 | 872.18 | 876.65 | – | – | – | – | – | –
293.15 K, x1 = 0.2059 | 890.58 | 895.35 | 899.82 | – | – | – | – | – | –
293.15 K, x1 = 0.25 | 907.39 | 912.16 | – | – | – | – | – | – | –
293.15 K, x1 = 0.3004 | 925.01 | 929.73 | – | – | – | – | – | – | –
293.15 K, x1 = 0.3426 | 938.66 | 943.38 | – | – | – | – | – | – | –
293.15 K, x1 = 0.3984 | 955.38 | 960.11 | – | – | – | – | – | – | –
293.15 K, x1 = 0.4514 | 969.9 | 974.63 | – | – | – | – | – | – | –
293.15 K, x1 = 0.5054 | 983.54 | 988.23 | – | – | – | – | – | – | –
293.15 K, x1 = 0.5509 | 994.14 | 998.83 | – | – | – | – | – | – | –
293.15 K, x1 = 0.6002 | 1004.83 | 1009.48 | – | – | – | – | – | – | –
293.15 K, x1 = 0.6469 | 1014.25 | 1018.9 | – | – | – | – | – | – | –
293.15 K, x1 = 0.6993 | 1024.07 | 1028.72 | – | – | – | – | – | – | –
293.15 K, x1 = 0.7496 | 1032.91 | 1037.51 | – | – | – | – | – | – | –
293.15 K, x1 = 0.799 | 1041.06 | 1045.66 | – | – | – | – | – | – | –
293.15 K, x1 = 0.837 | 1047.02 | 1051.63 | – | – | – | – | – | – | –
293.15 K, x1 = 0.9093 | 1057.71 | 1062.27 | – | – | – | – | – | – | –
293.15 K, x1 = 0.9239 | 1059.75 | 1064.31 | – | – | – | – | – | – | –
293.15 K, x1 = 0.9575 | 1064.38 | 1068.94 | – | – | – | – | – | – | –
293.15 K, x1 = 0.9861 | 1068.22 | 1072.78 | – | – | – | – | – | – | –
293.15 K, x1 = 1 | 1070.06 | 1074.62 | – | – | – | – | – | – | –
